The values below come from ChEMBL document CHEMBL5532657, “Serendipitous discovery of Class I HDAC inhibitors from rational design of molecular glue degraders targeting HDAC” (Eur J Med Chem, 2024).

The source made the active and inactive calls. The calls are words filed in the database; no cut-off is given here.

Assay [1] deals with T1, Protein deacetylase HDAC6 (Homo sapiens) (UniProt Q9UBN7).
T1 sequence (whole entry): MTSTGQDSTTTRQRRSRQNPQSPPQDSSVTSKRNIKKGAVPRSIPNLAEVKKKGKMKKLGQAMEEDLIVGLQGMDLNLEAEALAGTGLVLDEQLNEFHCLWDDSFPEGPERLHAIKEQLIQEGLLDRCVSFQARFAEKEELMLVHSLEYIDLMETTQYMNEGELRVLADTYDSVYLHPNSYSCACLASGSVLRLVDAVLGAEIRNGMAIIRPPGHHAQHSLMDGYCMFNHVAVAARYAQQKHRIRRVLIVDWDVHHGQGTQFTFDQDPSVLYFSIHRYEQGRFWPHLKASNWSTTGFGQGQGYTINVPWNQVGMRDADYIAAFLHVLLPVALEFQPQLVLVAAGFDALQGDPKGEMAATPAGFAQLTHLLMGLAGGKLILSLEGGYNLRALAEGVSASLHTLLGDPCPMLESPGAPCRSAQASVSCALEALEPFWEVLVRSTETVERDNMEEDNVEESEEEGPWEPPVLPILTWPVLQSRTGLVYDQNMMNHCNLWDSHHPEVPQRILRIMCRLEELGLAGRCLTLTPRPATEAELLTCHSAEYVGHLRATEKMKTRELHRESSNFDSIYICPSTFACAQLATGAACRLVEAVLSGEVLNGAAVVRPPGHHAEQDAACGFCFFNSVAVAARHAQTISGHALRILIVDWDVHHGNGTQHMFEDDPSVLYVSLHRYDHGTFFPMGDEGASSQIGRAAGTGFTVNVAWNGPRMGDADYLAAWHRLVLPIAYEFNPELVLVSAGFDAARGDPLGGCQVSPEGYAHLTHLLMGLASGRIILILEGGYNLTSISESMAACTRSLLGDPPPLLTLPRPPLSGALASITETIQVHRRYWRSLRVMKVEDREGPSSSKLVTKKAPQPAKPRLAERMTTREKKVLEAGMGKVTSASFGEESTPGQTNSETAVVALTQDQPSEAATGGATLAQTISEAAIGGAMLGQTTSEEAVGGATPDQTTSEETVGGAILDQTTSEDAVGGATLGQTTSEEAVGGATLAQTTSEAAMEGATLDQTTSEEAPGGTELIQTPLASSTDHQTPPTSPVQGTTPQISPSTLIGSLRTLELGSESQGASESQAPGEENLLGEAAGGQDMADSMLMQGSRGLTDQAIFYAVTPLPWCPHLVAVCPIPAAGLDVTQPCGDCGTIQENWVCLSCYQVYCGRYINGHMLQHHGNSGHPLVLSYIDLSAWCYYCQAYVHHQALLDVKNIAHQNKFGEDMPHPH
Put plainly: Induction of HDAC6 degradation in human RS4-11 cells at 0.5 to 10 uM incubated for 12 hrs by Western blotting analysis. To be noted: dose 0.5-10 µM. In kind it is cell-based.

The target in a further assay is Histone deacetylase 4 (Homo sapiens, UniProt P56524). Put plainly: Inhibition of HDAC4 in human HeLa cells nuclear extract using BocLys(acetyl)-AMC as substrate incubated for 1 hr by fluorescence plate reader analysis. Type of assay: subcellular, Nucleus.
Sequence of Histone deacetylase 4 (P56524 whole entry): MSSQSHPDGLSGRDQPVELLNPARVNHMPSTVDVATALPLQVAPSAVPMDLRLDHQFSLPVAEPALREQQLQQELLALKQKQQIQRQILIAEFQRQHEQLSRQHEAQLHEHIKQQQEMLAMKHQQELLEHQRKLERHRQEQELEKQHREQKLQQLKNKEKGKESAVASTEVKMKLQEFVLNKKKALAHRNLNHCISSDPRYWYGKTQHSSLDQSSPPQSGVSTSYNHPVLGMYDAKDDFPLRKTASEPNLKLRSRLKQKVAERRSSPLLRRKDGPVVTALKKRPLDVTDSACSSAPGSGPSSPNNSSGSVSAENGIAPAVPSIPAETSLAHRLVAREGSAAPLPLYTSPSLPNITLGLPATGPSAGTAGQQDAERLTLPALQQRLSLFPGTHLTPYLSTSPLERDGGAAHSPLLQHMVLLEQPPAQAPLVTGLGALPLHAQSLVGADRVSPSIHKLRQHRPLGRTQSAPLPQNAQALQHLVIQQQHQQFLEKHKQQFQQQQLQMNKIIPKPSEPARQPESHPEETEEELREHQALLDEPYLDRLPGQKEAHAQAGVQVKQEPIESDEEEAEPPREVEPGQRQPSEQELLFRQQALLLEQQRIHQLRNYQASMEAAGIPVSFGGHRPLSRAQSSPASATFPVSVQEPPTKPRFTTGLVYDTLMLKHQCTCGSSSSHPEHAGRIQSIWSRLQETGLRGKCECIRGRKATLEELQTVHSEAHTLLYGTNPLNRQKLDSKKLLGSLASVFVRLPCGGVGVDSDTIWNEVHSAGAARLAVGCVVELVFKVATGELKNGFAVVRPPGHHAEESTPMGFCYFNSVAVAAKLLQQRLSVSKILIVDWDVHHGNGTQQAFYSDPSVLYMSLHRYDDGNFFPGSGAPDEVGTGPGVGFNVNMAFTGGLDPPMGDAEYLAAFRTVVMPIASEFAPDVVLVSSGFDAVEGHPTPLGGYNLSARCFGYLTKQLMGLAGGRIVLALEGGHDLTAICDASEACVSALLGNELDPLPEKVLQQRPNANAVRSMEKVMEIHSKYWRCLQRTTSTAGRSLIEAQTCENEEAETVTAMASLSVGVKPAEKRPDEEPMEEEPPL
Assay [2] has as its target T2, Protein deacetylase HDAC6 (Homo sapiens, UniProt Q9UBN7).
T2 sequence (Q9UBN7 whole entry): T1 sequence (whole entry)
Put plainly: Inhibition of HDAC6 (unknown origin) using BocLys(acetyl)-AMC as substrate incubated for 1 hr by fluorescence plate reader analysis.

Assay [3] concerns RS4-11. Put plainly: Antiproliferative activity against human RS4-11 cells assessed as cell growth inhibition at 5 uM incubated for 48 hrs by CCK-8 assay. In kind it is functional, cell-based.
Another assay deals with U-266. Description: Antiproliferative activity against human U-266 cells assessed as cell growth inhibition incubated for 48 hrs by CCK-8 assay. Particulars: U-266, 48 h. In kind it is functional, cell-based.
The next assay has as its system K562. Put plainly: Antiproliferative activity against human K562 cells assessed as cell growth inhibition incubated for 48 hrs by CCK-8 assay. Particulars: K562, 48 h. Type of assay: functional, cell-based.
Assay [4] concerns the target T3, Histone deacetylase (Homo sapiens) (UniProt Q13547+O15379+Q9UBN7+Q92769+Q9UQL6+Q8WUI4+Q9BY41+Q96DB2+P56524+Q9UKV0+Q969S8). Description: Inhibition of HDAC in human RS4-11 cells assessed as upregulation of histone H3 acetylation at 1 to 10 uM by Western blot assay. Particulars: dose 1-10 µM. In kind it is cell-based.
In assay [5] the target is T3, Histone deacetylase (Homo sapiens). Put plainly: Inhibition of HDAC in human RS4-11 cells assessed as upregulation of histone H4 acetylation at 1 to 10 uM by Western blot assay. In kind it is cell-based. To be noted: dose 1-10 µM.
The target in assay [6] is T1, Protein deacetylase HDAC6 (Homo sapiens). Put plainly: Inhibition of HDAC6 in human RS4-11 cells assessed as upregulation of alpha-tubulin acetylation at 1 to 10 uM by Western blot assay. Type of assay: cell-based. Particulars: dose 1-10 µM.
For assay [7], the system named is RS4-11. Description: Induction of apoptosis in human RS4-11 cells assessed as downregulation of Bcl-2 level. To be noted: dose 1-10 µM. In kind it is functional, cell-based.
The subject of assay [8] is RS4-11. Put plainly: Induction of apoptosis in human RS4-11 cells assessed as upregulation of Bax level. To be noted: dose 1-10 µM. Type of assay: functional, cell-based.
In assay [9] the test system is RS4-11. Description: Induction of apoptosis in human RS4-11 cells assessed as cleaved caspase-9 release at 1 to 10 uM. In kind it is functional, cell-based. Particulars: dose 1-10 µM.
Assay [10] concerns RS4-11. Description: Induction of apoptosis in human RS4-11 cells assessed as cleavage of caspase-3 at 1 to 10 uM. In kind it is functional, cell-based. To be noted: dose 1-10 µM.
The test system of assay [11] is RS4-11. Description: Induction of apoptosis in human RS4-11 cells after 48 hrs by Annexin V-FITC/PI staining based flow cytometry analysis. In kind it is functional, cell-based. Particulars: dose 1-10 µM.

In the case of `Nc1cc(F)ccc1NC(=O)c1ccc(CNc2cccc3c2C(=O)N(C2CCC(=O)NC2=O)C3=O)cc1` (stereo not drawn), the result in [1] and in assay [6] was inactive. In addition, the IC50 at Histone deacetylase 4 was over 2000 nM; in assay [2] it was over 2000 nM; in the assay on U-266, 2.94 µM; in the assay on K562, 5.35 µM. Further, the outcome (in the assay on RS4-11 [3]; in assay [4]; in [5]; with RS4-11 [9]; with RS4-11 [10]) was Active. Further, the Activity entry in the assay on RS4-11 [7], in the assay with RS4-11 [8] and in the assay with RS4-11 [11] was “Dose-Dependent Effect” each time.

`Nc1ccccc1NC(=O)c1ccc(CNc2cccc3c2C(=O)N(C2CCC(=O)NC2=O)C3=O)cc1` (stereo not drawn): the result in assay [1] and in assay [6] was inactive. Moreover, the IC50 at Histone deacetylase 4 is over 2000 nM; in assay [2] it was over 2000 nM; with U-266, 4.89 µM; in the assay with K562, 5.54 µM. The result (in the assay with RS4-11 [3]; in assay [4]; in assay [5]; in the assay on RS4-11 [9]; with RS4-11 [10]) was Active. The Activity result in the assay with RS4-11 [7], in the assay with RS4-11 [8] and in the assay on RS4-11 [11] was “Dose-Dependent Effect” in each case.
